Patent publication US20100292229A1, “TRYPHOSTIN-ANALOGS FOR THE TREATMENT OF CELL PROLIFERATIVE DISEASES” (The Board of Regents of the University of Texas System, priority 2006, published 2010)

Legend:
[1] = test system: A375 melanoma tumors; experiment: A375 melanoma tumors in nude mice; type: in vivo, Swiss nude mice
Protocol: Ten Swiss nude mice (6-7 weeks of age) were injected subcutaneously (sc) with […] A375 melanoma cells on Day 0. When tumor nodules were palpable (Day 8), animals were divided into 2 groups. One group (Control) received 0.1 ml DMSO/PEG (1:1) intraperitoneally (ip) every other day […] for a total of 14 injections. The second group received 40 mg/kg Degrasyn ip beginning on Day 8 and repeated every other day for a total of 14 injections. Body weight and tumor volumes (by calipers) were measured every other day, the latter plotted vs. time. […] All animals were euthanized when tumor volumes (in the control group) achieved the maximal allowable burden (1.5 cm^3). The average +/−S.E.M. tumor volume from 5 animals per group is shown.
Anti-tumor studies. Swiss Nu/Nu mice were obtained from the breeding facility in the Department of Experimental Radiotherapy at M.D. Anderson Cancer Center. On Day 0, 200 μl of an A375 cell suspension (5×10^6 cells/ml) were injected (s.c.) into female Swiss nude mice 6-7 weeks of age. At the interval noted, compounds were injected (i.p. or oral gavage) into tumor bearing mice in a 0.1 ml suspension of DMSO/PEG300 (50/50). Degrasyn (40 mg/kg) was administrated on an every other day schedule, for 5 or more injections. […] Tumor volumes were measured every other day using calipers (Cel Associates, Houston, Tex.).

[2] = test system: Normal dermal human fibroblasts (NDF); experiment: Growth/survival and MTT assay of normal dermal fibroblasts; type: cell-based
Protocol: Normal dermal human fibroblasts were treated for 1 h at 5 μM Degrasyn before cells were rinsed and cultured in normal growth media for 72 h. Control and treated cells were photographed after 72 h. […] An MTT assay was performed with NDF and A375 cells under these conditions (1 h treatment, 72 h incubation) to estimate the IC50 distinctions between these populations.
(§1) MTT (viability) assay. MTT reagent (20 μl of 5 mg/ml stock solution, Sigma) is added to the cells and the plates are incubated at 37° C. for another 2 h. Cells are lysed by adding 100 μl of lysis buffer (20% SDS in 50% N,N-dimethylformamide (Sigma) adjusted to pH 4.7 by 80% acetic acid and 1 M HCl such that the final concentration of acetic acid is 2.5% and HCl is 2.5%) into each well and incubated for 6 h. The OD570 of each sample is determined by using a SPECTRA MAX M2 plate reader (Molecular Devices). The OD in control and treated wells is used as an estimate of the effect of compounds on cell growth and survival.
Cell lines. […] A375 melanoma cells were grown and maintained in the same media. […]

[3] = biological target: T1, BCR-ABL (T315I) (Homo sapiens, UniProt P00519, T315I); experiment: pBCR-ABL and BCR-ABL immunoblot in BV-173R cells; type: cell-based; design: dose or concentration left out as unconfirmed; settings: 1 h
T1 construct: endogenous in cells; host or cells: BV-173R; the other entry of the earlier key: BCR (P11274, Breakpoint cluster region protein)
Protocol: Actin was probed as protein loading control.
Western Blot analysis. […] Western blotting was performed using specific primary antibodies Peroxidase-conjugated affiniPure anti-Mouse Anti-Rabbit secondary antibodies (Jackson Immunoresearch Laboratories, West Grove, Pa.). The proteins were visualized with ECL Plus reagents (Amersham Biosciences).

[4] = test system: Stat3; experiment: IL-6 stimulated Stat3 activation (pY-Stat3) immunoblot in MM-1 cells; type: cell-based
Protocol: Left: MM-1 cells were pretreated with Degrasyn (5 μM WP1130) for 2 h before incubation with IL-6 (10 ng/ml) for 15 min. Cell lysates were prepared and assessed for Stat3 activation (pY-Stat3) and protein levels (Stat3) by immunoblotting. Actin was used as a control for protein loading.
Left: MM-1 cells were pretreated with buffer alone (−), AG490 (50 μM) or Degrasyn (5 μM) for 2 h before incubation with IL-6 for 15 min. Cell lysates were prepared and Jak2 was immunoprecipitated and immunoblotted with anti-Jak2 (top). Cell lysates (50 μg) were immunoblotted for pY-Stat3, Stat3 or actin.
Western Blot analysis. Cells were harvested, washed twice in cold 1×PBS and lysed in modified RIPA lysis buffer (150 mM NaCl, 1% NP-40, 0.5% Na-deoxycholate [DOC], 0.1% Na-dodecyl sulfate [SDS], 50 mM Tris-HCl (pH 7.5), 1 mM EDTA, 1 mM NaF, 2 mM Na-vanadate, with protease inhibitors (1 mM PMSF, 1 mM benzamidine, 10 μg/ml aprotinin, 10 μg/ml leupeptin) on ice for 30 min. The lysed cells were centrifuged at 13,000 rpm for 30 min and the supernatant collected. The protein concentration of the cell lysate was determined by the Bradford Protein Assay. Fifty to 60 μg of protein were resolved in a 10% SDS-PAGE, and transferred to a PVDF membrane. […]

[5] = test system: K562 cells; experiment: MTT assay of cell growth and survival, K562 cells; type: cell-based, human; settings: FIG. 21; anti-tumor activity
Protocol: All compounds are tested for purity (HPLC, NMR) and the calculated molecular weight is used to make up a 10 mM stock solution of each compound (in 100% dimethylsulfoxide or 50% dimethylsulfoxide:50% polyethylene glycol 300). Compounds are diluted into cell culture media consisting of RPMI 1640 with 10% fetal bovine serum to a final starting concentration of 10 μM. [Highest final DMSO content=0.1%.]. Tumor cells (20,000 for non-adherent cells; 5,000 for adherent cells) are plated into individual wells of a 96-well culture plate in 0.1 ml of culture media. Diluted compounds are added to individual wells containing pre-plated cells (final volume 0.2 ml) and incubated at 37° C. for 24 to 72 h. Wells receiving vehicle alone acted as a control.
as §1
Cell lines. […]

## CCC[C@H](NC(=O)/C(C#N)=C/c1cccc(Br)n1)c1ccccc1 [Degrasyn]
[1]; 40 mg/kg ip every other day
  Animal weight: did not affect animal weight
[1]; 40 mg/kg ip every other day from Day 8, 14 injections
  Growth of A375 tumors (tumor volume): suppresses the growth of A375 tumors in vivo
[2]; 5 μM for 1 h, then 72 h in normal growth media
  Growth or survival of normal dermal fibroblasts: did not affect the growth or survival of NDFs
[2]; A375 vs NDF, MTT, 1 h treatment, 72 h incubation
  Activity against melanoma tumors relative to normal dermal fibroblast: > 5 fold
[3]
  pBCR-ABL and BCR-ABL protein levels, BV-173R: reduced BCR-ABL protein levels in both w/t and mutant BCR-ABL expressing cells
[4]; 5 μM, 2 h pretreatment, IL-6 10 ng/ml 15 min
  Stat3 activation (pY-Stat3): blocked Stat3 activation
[4]; Degrasyn 5 μM vs AG490 50 μM, 2 h, IL-6 15 min
  Stat3 activation compared with AG490: reduces Stat3 activation more effectively than 10-fold greater concentrations of AG490
[5]
  IC50: 2800 nM
